Test [1] has as its target EGFR WT in Ba/F3 cells (Homo sapiens (Human), UniProt P00533). The test is described as follows: Ba/F3 pEGFR assay (AlphaLISA p-EGFR Tyr1068). The settings on record: 2 hrs treatment, media supplemented with EGF. Type of test: cell-based. Here is the method: Cellular activity was determined using the Ba/F3 system for studying oncogenic mutant kinases (Warmuth 2007). […] Transduced cells were maintained in RPMI 1640 with 10% FBS. EGFR WT transduced cells were grown in media supplemented with EGF. To assay cellular activity of inhibitors, cells were treated with inhibitor from 1000X DMSO stock dilutions and incubated for 2 hrs at 37° C. 5% CO2. Subsequently, p-EGFR (Tyr1068) was quantified using a commercial sandwich immunoassay (PerkinElmer AlphaLISA SureFire assay; ALSU-PEGFR) according to the manufacturer's instructions. […] Curr Opin Oncol 19, 55-60 (2007), which is incorporated herein in its entirety.
In general terms: Alpha assays give light when donor and acceptor beads are brought close together.

Test [2] has as its target EGFR WT (Homo sapiens (Human), UniProt P00533). Nature of the test: EGFR biochemical assay (AssayQuant chelation-enhanced fluorescence). To be noted: 30 min preincubation, reaction time 360 min.

EGFR WT, sequence (P00533 668-1210): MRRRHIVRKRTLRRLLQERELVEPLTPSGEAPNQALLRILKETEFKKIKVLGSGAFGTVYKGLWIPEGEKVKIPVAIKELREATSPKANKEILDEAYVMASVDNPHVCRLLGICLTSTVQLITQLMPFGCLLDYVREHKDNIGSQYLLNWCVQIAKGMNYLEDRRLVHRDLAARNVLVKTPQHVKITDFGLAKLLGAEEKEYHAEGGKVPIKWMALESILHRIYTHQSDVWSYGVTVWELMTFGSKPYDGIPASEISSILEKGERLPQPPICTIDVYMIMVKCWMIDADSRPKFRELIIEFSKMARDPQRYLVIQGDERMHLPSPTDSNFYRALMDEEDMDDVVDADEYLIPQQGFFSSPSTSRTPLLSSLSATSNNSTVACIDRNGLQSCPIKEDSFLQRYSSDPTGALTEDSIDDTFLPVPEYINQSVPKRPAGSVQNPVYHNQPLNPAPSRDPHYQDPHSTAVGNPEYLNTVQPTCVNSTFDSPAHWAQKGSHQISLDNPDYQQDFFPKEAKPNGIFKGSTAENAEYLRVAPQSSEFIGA
EGFR WT in Ba/F3 cells, sequence (P00533 25-1210): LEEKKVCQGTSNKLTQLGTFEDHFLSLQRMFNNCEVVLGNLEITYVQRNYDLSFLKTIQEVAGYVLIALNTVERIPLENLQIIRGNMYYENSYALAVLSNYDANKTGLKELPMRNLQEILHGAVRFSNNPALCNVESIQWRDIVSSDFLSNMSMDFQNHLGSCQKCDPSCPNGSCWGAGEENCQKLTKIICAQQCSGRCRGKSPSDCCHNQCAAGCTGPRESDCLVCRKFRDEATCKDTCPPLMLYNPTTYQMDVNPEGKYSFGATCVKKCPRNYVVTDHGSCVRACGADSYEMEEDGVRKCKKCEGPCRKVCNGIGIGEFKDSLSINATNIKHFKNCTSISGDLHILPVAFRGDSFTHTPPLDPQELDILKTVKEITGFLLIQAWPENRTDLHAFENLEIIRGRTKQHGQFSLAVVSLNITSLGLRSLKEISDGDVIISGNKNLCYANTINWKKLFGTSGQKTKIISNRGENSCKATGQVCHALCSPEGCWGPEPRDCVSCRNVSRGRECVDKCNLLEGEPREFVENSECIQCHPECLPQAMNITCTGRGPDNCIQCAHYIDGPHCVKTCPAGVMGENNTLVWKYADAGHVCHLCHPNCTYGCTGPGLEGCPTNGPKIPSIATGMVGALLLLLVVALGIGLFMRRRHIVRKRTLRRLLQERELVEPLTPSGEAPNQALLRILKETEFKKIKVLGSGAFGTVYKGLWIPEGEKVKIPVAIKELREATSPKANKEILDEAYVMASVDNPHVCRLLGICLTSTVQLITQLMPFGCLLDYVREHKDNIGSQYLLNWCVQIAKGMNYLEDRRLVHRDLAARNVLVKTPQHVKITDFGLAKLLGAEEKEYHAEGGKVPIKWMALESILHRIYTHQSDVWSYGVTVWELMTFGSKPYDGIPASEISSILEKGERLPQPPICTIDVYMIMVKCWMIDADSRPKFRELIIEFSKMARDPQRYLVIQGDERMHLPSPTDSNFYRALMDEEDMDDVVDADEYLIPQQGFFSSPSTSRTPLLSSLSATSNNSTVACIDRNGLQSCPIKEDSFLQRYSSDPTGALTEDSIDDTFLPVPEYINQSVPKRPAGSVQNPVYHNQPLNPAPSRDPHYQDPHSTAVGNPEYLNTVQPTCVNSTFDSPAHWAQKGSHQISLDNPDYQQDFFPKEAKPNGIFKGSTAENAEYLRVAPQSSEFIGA

A word on the IC50: it is the concentration at which inhibition is half-maximal. For the molecule `CN1CCN(Cc2ccc3[nH]/c(=N\C(=O)c4ccnc(Oc5ccccc5C=O)c4)n(CC(C)(C)O)c3c2)CC1` [Compound 92], the figures for the IC50 in test [1] and in test [2] were 9060 nM and 296 nM, respectively.

For `CN1CCN(Cc2ccc3[nH]/c(=N\C(=O)c4ccnc(Oc5cccc(O)c5C=O)c4)n(CC(C)(C)O)c3c2)CC1` [Compound 64], the IC50 is 1420 nM in test [1] and 8.96 nM in test [2].

Turning to `CC(=O)Nc1cccc(C#Cc2cc(C(=O)/N=c3\[nH]c4ccc(CN5CCN(C)CC5)cc4n3CC(C)(C)O)cc(C)n2)c1C=O` [Compound 97], the IC50 in test [1] stood at 7950 nM; in test [2], 115 nM.

For the molecule `CC(=O)Nc1cccc(Oc2cc(C(=O)/N=c3\[nH]c4ccc(CN5CCN(C)CC5)cc4n3CC(C)(C)O)ccn2)c1C=O` [Compound 98], the IC50 worked out at 1830 nM in test [1] and 148 nM in test [2].

For `O=Cc1c(O)cccc1Oc1cc(C(=O)/N=c2\[nH]c3ccccc3n2CCN2CCOCC2)ccn1` [Compound 123], the IC50 is above 10000 nM in test [1] and 221 nM in test [2].

As for `CN1CCN(Cc2ccc3[nH]/c(=N\C(=O)c4cncc(Oc5cccc(O)c5C=O)c4)n(CC(C)(C)O)c3c2)CC1` [Compound 55], the half-maximal inhibitory concentration (IC50) in test [1] is 1430 nM; in test [2], 5.33 nM.

Regarding `CN(C)C/C=C/C(=O)N1CCCC[C@@H](n2c(NC(=O)c3ccnc(Oc4cccc(O)c4C=O)c3)nc3cccc(Cl)c32)C1` [Compound 126], the values for the IC50 in test [1] and in test [2] were 2030 nM and 13 nM, respectively.

Regarding `CC(C)(O)Cn1/c(=N/C(=O)c2ccnc(-c3cccc(-c4cccc(O)c4C=O)c3)c2)[nH]c2ccccc21` [Compound 130], the IC50 worked out at 6430 nM in test [1] and 529 nM in test [2].

In the case of `COc1cc(N(C)CCN(C)C)c(NC(C)=O)cc1Nc1nccc(-c2cn(Cc3ccc(C=O)c(O)c3)c3ccccc23)n1` [Compound 29], the IC50 in test [1] is above 10000 nM; in test [2] it was above 1000 nM.

With `CN1CCN(Cc2ccc3[nH]/c(=N\C(=O)c4ccnc(Oc5cc(F)cc(O)c5C=O)c4)n(CC(C)(C)O)c3c2)CC1` [Compound 66], the IC50 turned out to be 2950 nM in test [1] and 18.6 nM in test [2].

In the case of `COc1cc(N2CCC(N3CCN(C)CC3)CC2)ccc1Nc1ncc(-c2cccc(C=O)c2)c(Nc2ccccc2)n1` [Compound 14], the IC50 was above 10000 nM in test [1] and 63.4 nM in test [2].

As to `CC(C)(O)Cn1/c(=N/C(=O)c2ccnc(Oc3cccc(O)c3C=O)c2)[nH]c2ccc(CN3CCOCC3)cc21` [Compound 76], the 50% inhibitory concentration (IC50) in test [1] turned out to be 2370 nM; in test [2] it was 13.5 nM.

For `CC(C)(O)Cn1/c(=N/C(=O)c2ccnc(Oc3cccc(O)c3C=O)c2)[nH]c2ccc(N3CCOCC3)cc21` [Compound 74], the half-maximal inhibitory concentration (IC50) in test [1] was 3230 nM; in test [2] it was 8.75 nM.

As for `CC(C)(O)Cn1/c(=N/C(=O)c2ccnc(Oc3cccc(O)c3C=O)c2)[nH]c2ccc(N3CCC(C(C)(C)O)CC3)cc21` [Compound 70], the IC50 stood at 4580 nM in test [1] and 11.5 nM in test [2].

Consider `Cc1cc(Oc2cccc(O)c2C=O)cc(C(=O)/N=c2\[nH]c3ccc(CN4CCN(C)CC4)cc3n2CC(C)(C)O)c1` [Compound 61], for which the results for the concentration for half-maximal inhibition (IC50) in test [1] and in test [2] were above 10000 nM and 17.9 nM, respectively.

Regarding `COc1cc(N2CCC(N3CCN(C)CC3)CC2)ccc1Nc1ncc(-c2cc(F)c(O)c(C=O)c2)c(Nc2ccccc2)n1` [Compound 9], the IC50 in test [1] worked out at 42.5 nM; in test [2] it was 4.89 nM.

Turning to `CN(C)C/C=C/C(=O)N1CCCC[C@@H](n2c(NC(=O)c3ccnc(-n4cc(-c5cccc(O)c5C=O)cn4)c3)nc3cccc(Cl)c32)C1` [Compound 125], the results for the IC50 in test [1] and in test [2] were 4900 nM and 29.4 nM, respectively.

In the case of `CC(C)Cn1/c(=N/C(=O)c2ccnc(Oc3cccc(O)c3C=O)c2)[nH]c2ccc(CN3CCN(C)CC3)cc21` [Compound 65], the concentration for half-maximal inhibition (IC50) in test [1] is 3550 nM; in test [2] it was 10.1 nM.

Regarding `CN1CCN(Cc2ccc3[nH]/c(=N\C(=O)c4ccnc(C#Cc5ccc(F)c(O)c5C=O)c4)n(CC(C)(C)O)c3c2)CC1` [Compound 72], the figures for the IC50 in test [1] and in test [2] were above 10000 nM and 7.8 nM, respectively.

Regarding `CN1CCN(Cc2ccc3[nH]/c(=N\C(=O)c4ccnc(C#Cc5cccc(NC(=O)C(F)(F)F)c5C=O)c4)n(CC(C)(C)O)c3c2)CC1` [Compound 101], the IC50 in test [1] was found to be 2570 nM; in test [2] it was 200 nM.

In the case of `CC(=O)Nc1cccc(-c2cnn(-c3cc(C(=O)/N=c4\[nH]c5ccc(CN6CCN(C)CC6)cc5n4CC(C)(C)O)ccn3)c2)c1C=O` [Compound 95], the IC50 in test [1] was found to be 5780 nM; in test [2], 721 nM.

In the case of `CN1CCN(Cc2ccc3[nH]/c(=N\C(=O)c4cc(F)cc(Oc5cccc(O)c5C=O)c4)n(CC(C)(C)O)c3c2)CC1` [Compound 53], the IC50 was above 8180 nM in test [1] and 5.97 nM in test [2].

Regarding `COc1cc(N2CCC(N3CCN(C)CC3)CC2)ccc1Nc1ncc(-c2ccc(C=O)c(O)c2)c(Nc2ccccc2)n1` [Compound 4], the IC50 is above 10000 nM in test [1] and above 1000 nM in test [2].

As to `CN1CCN(Cc2ccc3[nH]/c(=N\C(=O)c4cc(Oc5cccc(O)c5C=O)c5sccc5c4)n(CC(C)(C)O)c3c2)CC1` [Compound 107], the IC50 in test [1] was found to be 2980 nM; in test [2] it was 8.71 nM.

Take `CN1CCN(Cc2ccc3[nH]/c(=N\C(=O)c4ccnc(C#Cc5cccc(NS(C)(=O)=O)c5C=O)c4)n(CC(C)(C)O)c3c2)CC1` [Compound 69]: the IC50 in test [1] was above 10000 nM; in test [2], 58.2 nM.

On to `CN1CCN(Cc2ccc3[nH]/c(=N\C(=O)c4ccc(Oc5cccc(O)c5C=O)cc4)n(CC(C)(C)O)c3c2)CC1` [Compound 105], for which the results for the IC50 in test [1] and in test [2] were above 10000 nM and 280 nM, respectively.

Consider `COc1cc(N(C)CCN(C)C)ccc1Nc1ncc(-c2ccc(O)c(C=O)c2)c(-c2cn(C)c3ccccc23)n1` [Compound 8], for which the IC50 in test [1] is above 10000 nM; in test [2], above 1000 nM.

With `CC(C)(O)Cn1/c(=N/C(=O)c2ccnc(Oc3cccc(O)c3C=O)c2)[nH]c2ccc(CN3CCC(C(C)(C)O)CC3)cc21` [Compound 80], the IC50 was found to be 4770 nM in test [1] and 10.9 nM in test [2].

For `CC(C)(O)Cn1/c(=N/C(=O)c2ccnc(-c3ccc(-c4cccc(O)c4C=O)cc3)c2)[nH]c2ccccc21` [Compound 132], the IC50 is above 10000 nM in test [1] and above 1000 nM in test [2].

For the molecule `CC(C)c1ccc(N2CC(CS(C)(=O)=O)C2)c2cnc(Nc3ccnc(Oc4cccc(O)c4C=O)n3)cc12` [Compound 48], the IC50 in test [1] is above 10000 nM; in test [2], above 1000 nM.

`CC(C)(O)Cn1/c(=N/C(=O)c2ccnc(Oc3cccc(O)c3C=O)c2)[nH]c2ccc(CN3CC(C(C)(C)O)C3)cc21` [Compound 63, (E)-2-(2-formyl-3-hydroxyphenoxy)-N-(1-(2-hydroxy-2-methylpropyl)-6-((3-(2-hydroxypropan-2-yl)azetidin-1-yl)methyl)-1,3-dihydro-2H-benzo[d]imidazol-2-ylidene)isonicotinamide]: the figures for the IC50 in test [1] and in test [2] were 4090 nM and 8.55 nM, respectively.

On to `CN1CCN(C2CCN(c3ccc4c(c3)[nH]/c(=N\C(=O)c3ccnc(Oc5cccc(O)c5C=O)c3)n4CC(C)(C)O)CC2)CC1` [Compound 91], for which the IC50 was above 10000 nM in test [1] and 49.3 nM in test [2].

On to `CC(C)(O)Cn1/c(=N/C(=O)c2ccnc(Nc3cccc(C=O)c3O)c2)[nH]c2ccccc21` [Compound 134], for which the IC50 in test [1] was above 10000 nM; in test [2], above 1000 nM.

The record behind these values is US20240409609A1, “REVERSIBLE LYSINE COVALENT MODIFIERS OF EGFR AND USES THEREOF” (Terremoto Biosciences, Inc., priority 2021, published 2024).
